From PMC11279727, “Bioprospecting, Synergistic Antifungal and Toxicological Aspects of the Hydroxychalcones and Their Association with Azole Derivates against Candida spp. for Treating Vulvovaginal Candidiasis” (Pharmaceutics, 2024)
Values after ≈ are worked out from the molar mass of the structure shown.

Experiments:
[1] = system: C33A cell line (uterine cervical carcinoma epithelium); experiment: In vitro cytotoxicity (resazurin, 72 h); details: Homo sapiens, C-33-A, 72 h
Procedure: (§1) Cytotoxicity assays were performed on the C33A cell line (uterine cervical carcinoma epithelium) obtained from the ATCC (Manassas, VA, USA). 5 × 10^4 cells/well were added using RPMI medium with 10% fetal bovine serum into 96-well plates. Cells were incubated at 36.5 °C with 5% CO2 for 24 h to form a cell monolayer. 2-HC and 3′-HC were analyzed in range concentrations from 0.1–75 μg/mL. In combinations, 2-HC and 3′-HC were analyzed from 0.48–31.25 mg/L and 0.48–62.5 mg/L. Cells were exposed for 72 h, and after, cytotoxicity was assessed by adding 100 μL of resazurin (50 μM) and measured by a microplate reader at 570 nm–600 nm. A negative control with untreated cells (100% living cells) and a positive control (DMSO 40% to induce cell death) were also used. The results were evaluated in triplicate independent. […] Selective index (SI) was calculated using SI=IC50/MIC50 .

[2] = In vitro cytotoxicity (resazurin, 72 h); details: human
Procedure: as §1

[3] = system: Candida glabrata ATCC 90030; experiment: In vitro susceptibility, CLSI M27-A3 broth microdilution (MIC/MFC); assay type: cell-based; details: Nakaseomyces glabratus, ATCC90030; for MFC: C. glabrata ATCC 90030; for MIC: C. glabrata ATCC 90030, 37 °C 24 h
Procedure: (§2) Susceptibility tests were performed according to the M27-A3 protocol proposed by the Clinical & Laboratory Standards Institute (CLSI) (2008). Briefly, 2-HC and 3′-HC were solubilized in dimethyl sulfoxide at 12.500 g/L and stored at −80 °C. […] The final concentration of 2-HC and 3′-HC in the RPMI medium was 0.24–125.0 mg/L. Dilutions of the compounds were performed in a 96-well microplate at a total volume of 100 μL/well. Fungal suspensions were prepared in 0.85% NaCl and were adjusted to a final concentration of 5 × 10^3 cells/mL. Then, 100 μL of the fungal suspension was added to all wells. Microplates were incubated at 37 °C for 24 h. […] Minimal inhibitory concentration (MIC) was considered the lowest concentration of the drug that inhibited the visible growth of yeast. […] Samples were processed in triplicate, and each experiment was carried out in triplicate.

[4] = system: Candida tropicalis ATCC 750; experiment: as above; assay type: cell-based; details: for MFC / MIC50: ATCC750, C. tropicalis ATCC 750; for MIC: ATCC750, C. tropicalis ATCC 750, 37 °C 24 h
Procedure: as §2

[5] = system: Candida albicans ATCC 90028; experiment: as above; assay type: cell-based; details: for MFC / MIC50: ATCC90028, C. albicans ATCC 90028; for MIC: ATCC90028, C. albicans ATCC 90028, 37 °C 24 h
Procedure: as §2

Candida krusei ATCC 6258 [6] = experiment: as above; assay type: cell-based; details: Pichia kudriavzevii, ATCC6258; for MFC / MIC50: C. krusei ATCC 6258; for MIC: C. krusei ATCC 6258, 37 °C 24 h
Procedure: as §2

[7] = system: Candida parapsilosis ATCC 22019; experiment: as above; assay type: cell-based; details: Lodderomyces parapsilosis, ATCC22019; for MFC: C. parapsilosis ATCC 22019; for MIC: C. parapsilosis ATCC 22019, 37 °C 24 h
Procedure: as §2

C. albicans ATCC 90028 = experiment: Therapeutic efficacy in Galleria mellonella infected with C. albicans; assay type: in vivo; details: for efficacy in the antifungal activity: substances alone at MIC values and LCs, infected larvae
[8] = system: Candida tropicalis ATCC 750; experiment: Combinatorial antifungal activity (checkerboard); assay type: cell-based; details: drug alone in checkerboard; for MIC80 (individual): C. tropicalis; for MIC80: Candida tropicalis, ATCC750, C. tropicalis, read-out: MIC80 (individual)
Text: (§3) Candida albicans ATCC 90028, Candida tropicalis ATCC 750, and Candida krusei ATCC 6258 were used. These species were selected for these assays because C. albicans is the most prevalent etiological agent in fungal infections caused by the genus Candida, and C. tropicalis is the most frequent non-albicans species. C. krusei was used to represent the species most resistant to azole drugs. Thus, 2-HC and 3′-HC were combined with FCZ and CTZ and associated with each other. Their combinatorial antifungal activity was determined through the checkerboard method using 96-well microplates, according to Bellio et al. (2021). […] Microplates were incubated at 37 °C for 24 h. […] The negative control was only the culture medium, and the positive control was composed of microorganisms and the culture medium. […] From this, it was calculated the fractional inhibitory concentration (FIC) and the fractional inhibitory concentration index (FICI) of each well of the interface as follows: […]

[9] = system: Candida albicans ATCC 90028; experiment: Combinatorial antifungal activity (checkerboard); assay type: cell-based; details: ATCC90028, C. albicans, drug alone in checkerboard, read-out: MIC80 (individual)
Text: as §3

Candida krusei ATCC 6258 [10] = experiment: Combinatorial antifungal activity (checkerboard); assay type: cell-based; details: Pichia kudriavzevii, ATCC6258; C. krusei, drug alone in checkerboard; read-out: MIC80 (individual)
Text: as §3

[11] = system: Mycobacterium tuberculosis; design: method as in PMID 34790584; details: cited from earlier work
[12] = system: Mycobacterium tuberculosis and Paracoccidioides brasiliensis mixed biofilm; design: method as in PMID 34790584; details: cited from earlier work
[13] = system: Paracoccidioides brasiliensis; design: method as in PMID 34790584; details: cited from earlier work
C33A cell line = details: in the concentration ranges tested in the combinations
Procedure: as §1

SMILES	IC50 [1] [µg/mL]	viability at 72 h, 9.38 mg/L [2] [%]	MFC [3] [µg/mL]	MIC [3] [µg/mL]	MFC [4] [µg/mL]	MIC50 [4] [µg/mL]	MIC [4] [µg/mL]	MFC [5] [µg/mL]	MIC50 [5] [µg/mL]	MIC [5] [µg/mL]	MFC (Candida krusei ATCC 6258 [6]) [µg/mL]	MIC50 (Candida krusei ATCC 6258 [6]) [µg/mL]	MIC (Candida krusei ATCC 6258 [6]) [µg/mL]	MFC [7] [µg/mL]	MIC [7] [µg/mL]	efficacy in the antifungal activity (C. albicans ATCC 90028)	MIC80 (individual) [8] [µg/mL]	MIC80 [8] [µg/mL]	MIC80 [9] [µg/mL]	MIC80 (Candida krusei ATCC 6258 [10]) [µg/mL]	further results
O=C(/C=C/c1ccccc1O)c1ccccc1 [2-HC, 2-hydroxychalcone]	13	> 80	> 125	15.6 (≈ 69.6 µM)	> 125	7.81 (≈ 34.8 µM)	31.3 (≈ 140 µM)	> 125	15.6 (≈ 69.7 µM)	31.3 (≈ 140 µM)	125 (≈ 557 µM)	15.6 (≈ 69.7 µM)	7.8 (≈ 34.8 µM)	15.6 (≈ 69.6 µM)	7.8 (≈ 34.8 µM)	did not demonstrate efficacy	31.25	62.5	31.2	31.2	
O=C(/C=C/c1ccccc1)c1cccc(O)c1 [3′-HC, 3′-hydroxychalcone]	11.9	> 80	31.3 (≈ 140 µM)	7.8 (≈ 34.8 µM)	125 (≈ 557 µM)	7.81 (≈ 34.8 µM)	31.3 (≈ 140 µM)	> 125	15.6 (≈ 69.7 µM)	31.3 (≈ 140 µM)	31.3 (≈ 140 µM)	7.81 (≈ 34.8 µM)	7.8 (≈ 34.8 µM)	31.3 (≈ 140 µM)	15.6 (≈ 69.6 µM)	did not demonstrate efficacy	31.25	62.5	31.2	15.6	MIC [11]: 7.8 µg/mL (≈ 34.8 µM); biofilm degradation [12]: above 50%; MIC [13]: 0.97 µg/mL (≈ 4.33 µM)
C[C@@H]1[C@H](O)[C@@H](C)/C=C/C=C/C=C/C=C/C=C/C=C/C=C/[C@H](O[C@@H]2O[C@H](C)[C@@H](O)[C@H](N)[C@@H]2O)C[C@@H]2O[C@](O)(C[C@@H](O)C[C@@H](O)[C@H](O)CC[C@@H](O)C[C@@H](O)CC(=O)O[C@H]1C)C[C@H](O)[C@H]2C(=O)O [AMB, amphotericin B, reference compound]			0.5 (≈ 0.541 µM)	0.4 (≈ 0.433 µM)	1 (≈ 1.08 µM)		0.05 (≈ 0.0541 µM)	1 (≈ 1.08 µM)		0.2 (≈ 0.216 µM)	1 (≈ 1.08 µM)		0.1 (≈ 0.108 µM)	0.3 (≈ 0.325 µM)	0.1 (≈ 0.108 µM)						
Clc1ccccc1C(c1ccccc1)(c1ccccc1)n1ccnc1 [CTZ, clotrimazole, reference compound]			> 2	0.004 (≈ 0.0116 µM)	> 4		0.01 (≈ 0.029 µM)	> 4		0.01 (≈ 0.029 µM)	> 4		0.06 (≈ 0.174 µM)	0.1 (≈ 0.29 µM)	0.03 (≈ 0.087 µM)			0.03	0.03	0.13	cytotoxicity (C33A cell line): did not present cytotoxicity
OC(Cn1cncn1)(Cn1cncn1)c1ccc(F)cc1F [FCZ, Fluconazole, reference compound]			> 64	0.5 (≈ 1.63 µM)	> 64		0.5 (≈ 1.63 µM)	> 64		0.25 (≈ 0.816 µM)	128 (≈ 418 µM)		32 (≈ 104 µM)	2 (≈ 6.53 µM)	1 (≈ 3.27 µM)			0.5	0.5	32	cytotoxicity (C33A cell line): did not present cytotoxicity; health indexes vs infection control group (C. albicans ATCC 90028; larvae infected with C. albicans ATCC 90028, all doses, FCZ 350 mg/L): statistically different from the infection control group; survival curves vs infection control group (C. albicans ATCC 90028; larvae infected with C. albicans ATCC 90028, treated 1 h after infection, five days, FCZ 350 mg/L): statistically different from the infection control group
